How the values were obtained:
Experiment in all cases: Test B pre-/postemergence plant response
Type in all cases: in vivo
[1] = test system: velvetleaf (Abutilon theophrasti)
Text: (§1) Seeds of plant species selected from blackgrass (Alopecurus myosuroides), downy bromegrass (Bromus tectorum), green foxtail (Setaria viridis), Italian ryegrass (Lolium multiflorum), wheat (Triticum aestivum), wild oat (Avena fatua), deadnettle (henbit deadnettle, Lamium amplexicaule), galium (catchweed bedstraw, Galium aparine), bermudagrass (Cynodon dactylon), Surinam grass (Brachiaria decumbens), cocklebur (Xanthium strumarium), corn (Zea mays), large crabgrass (Digitaria sanguinalis), woolly cupgrass (Eriochloa villosa), giant foxtail (Setaria faberii), goosegrass (Eleusine indica), johnsongrass (Sorghum halepense), kochia (Kochia scoparia), lambsquarters (Chenopodium album), morningglory (Ipomoea coccinea), nightshade (eastern black nightshade, Solanum ptycanthum), yellow nutsedge (Cyperus esculentus), pigweed (Amaranthus retroflexus), ragweed (common ragweed, Ambrosia elatior), Russian thistle (Salsola kali), soybean (Glycine max), sunflower (common oilseed sunflower, Helianthus annuus) and velvetleaf (Abutilon theophrasti) were planted into a blend of loam soil and sand and treated preemergence with test compounds formulated in a non-phytotoxic solvent mixture which included a surfactant.
(§2) At the same time, plants selected from these crop and weed species and also winter barley (Hordeum vulgare), canarygrass (Phalaris minor), chickweed (Stellaria media) and windgrass (Apera spica-venti) were planted in pots containing Redi-Earth® planting medium (Scotts Company, 14111 Scottslawn Road, Marysville, Ohio 43041) comprising spaghnum peat moss, vermiculite, wetting agent and starter nutrients and treated with postemergence applications of some of the test chemicals formulated in the same manner. Plants ranged in height from 2 to 18 cm (1- to 4-leaf stage) for postemergence treatments.
(§3) Treated plants and controls were maintained in a greenhouse for 13 to 15 days, after which time all treated plants were visually evaluated and compared to controls. Plant response ratings, summarized in Table B, are based on a scale of 0 to 100 where 0 is no effect and 100 is complete control. A dash (-) response means no test result.

[2] = test system: downy bromegrass (Bromus tectorum)
Text: as §1, §2, §3

[3] = test system: ragweed (common ragweed, Ambrosia elatior)
Text: as §1, §2, §3

[4] = test system: woolly cupgrass (Eriochloa villosa)
Text: as §1, §2, §3

[5] = test system: johnsongrass (Sorghum halepense)
Text: as §1, §2, §3

kochia (Kochia scoparia) = test system: kochia (Kochia scoparia)
Text: as §1, §2, §3

corn (Zea mays) = test system: corn (Zea mays)
Text: as §1, §2, §3

[6] = test system: pigweed (Amaranthus retroflexus)
Text: as §1, §2, §3

[7] = test system: Italian ryegrass (Lolium multiflorum)
Text: as §1, §2, §3

[8] = test system: giant foxtail (Setaria faberii)
Text: as §1, §2, §3

soybean (Glycine max) = test system: soybean (Glycine max)
Text: as §1, §2, §3

[9] = test system: blackgrass (Alopecurus myosuroides)
Text: as §1, §2, §3

[10] = test system: Surinam grass (Brachiaria decumbens)
Text: as §1, §2, §3

[11] = 31 g ai/ha, postemergence, scale 0 to 100, 0 is no effect, 100 is complete control
[12] = Postemergence, 62 g ai/ha, scale 0 (no effect) to 100 (complete control), 13 to 15 days
[13] = Postemergence, 125 g ai/ha, visual rating after 13 to 15 days, scale 0 (no effect) to 100 (complete control)
[14] = Postemergence, 250 g ai/ha, scale 0 to 100 (0 no effect, 100 complete control)
[15] = Preemergence, 31 g ai/ha, scale 0 to 100 (0 no effect, 100 complete control)
[16] = Preemergence, 62 g ai/ha, scale 0 to 100 (0 no effect, 100 complete control)
[17] = Preemergence, 125 g ai/ha, scale 0 to 100, 0 no effect, 100 complete control
[18] = 250 g ai/ha, Preemergence, 0 to 100 scale

Structure (SMILES): O=C1CCCC(O)=C1C(=O)c1cnc(-c2ccccc2)n(CC2CCCO2)c1=O (stereo not shown) [Compound 59]
- Plant response rating, Velvetleaf [1, 11]: 85
- Plant response rating, Velvetleaf [1, 12]: 90
- Plant response rating, Velvetleaf [1, 13]: 95
- Plant response rating, Velvetleaf [1, 14]: 98
- Plant response rating, Velvetleaf [1, 15]: 75
- Plant response rating, Velvetleaf [1, 16]: 90
- Plant response rating, Velvetleaf [1, 17]: 100
- Plant response rating, Bromegrass, Downy [2, 11]: 5
- Plant response rating, Bromegrass, Downy [2, 18]: 0
- Plant response rating, Bromegrass, Downy [2, 12]: 30
- Plant response rating, Bromegrass, Downy [2, 13]: 35
- Plant response rating, Bromegrass, Downy [2, 14]: 45
- Plant response rating, Bromegrass, Downy [2, 15]: 0
- Plant response rating, Bromegrass, Downy [2, 16]: 0
- Plant response rating, Bromegrass, Downy [2, 17]: 0
- Plant response rating, Ragweed [3, 11]: 75
- Plant response rating, Ragweed [3, 12]: 80
- Plant response rating, Ragweed [3, 13]: 90
- Plant response rating, Ragweed [3, 14]: 95
- Plant response rating, Ragweed [3, 15]: 75
- Plant response rating, Ragweed [3, 16]: 90
- Plant response rating, Ragweed [3, 17]: 90
- Plant response rating, Cupgrass, Woolly [4, 11]: 75
- Plant response rating, Cupgrass, Woolly [4, 18]: 85
- Plant response rating, Cupgrass, Woolly [4, 12]: 75
- Plant response rating, Cupgrass, Woolly [4, 13]: 90
- Plant response rating, Cupgrass, Woolly [4, 14]: 95
- Plant response rating, Cupgrass, Woolly [4, 15]: 10
- Plant response rating, Cupgrass, Woolly [4, 16]: 65
- Plant response rating, Cupgrass, Woolly [4, 17]: 65
- Plant response rating, Johnsongrass [5, 18]: 90
- Plant response rating, Johnsongrass [5, 12]: 75
- Plant response rating, Johnsongrass [5, 13]: 100
- Plant response rating, Johnsongrass [5, 14]: 100
- Plant response rating, Johnsongrass [5, 17]: 80
- Plant response rating, Kochia (kochia (Kochia scoparia); [18]): 98
- Plant response rating, Kochia (kochia (Kochia scoparia); [12]): 10
- Plant response rating, Kochia (kochia (Kochia scoparia); [13]): 45
- Plant response rating, Kochia (kochia (Kochia scoparia); [14]): 75
- Plant response rating, Kochia (kochia (Kochia scoparia); [15]): 0
- Plant response rating, Kochia (kochia (Kochia scoparia); [16]): 45
- Plant response rating, Kochia (kochia (Kochia scoparia); [17]): 60
- Plant response rating, Corn (corn (Zea mays); [18]): 0
- Plant response rating, Corn (corn (Zea mays); [12]): 0
- Plant response rating, Corn (corn (Zea mays); [13]): 75
- Plant response rating, Corn (corn (Zea mays); [14]): 75
- Plant response rating, Corn (corn (Zea mays); [15]): 0
- Plant response rating, Corn (corn (Zea mays); [16]): 0
- Plant response rating, Corn (corn (Zea mays); [17]): 0
- Plant response rating, Pigweed [6, 12]: 100
- Plant response rating, Pigweed [6, 13]: 100
- Plant response rating, Pigweed [6, 14]: 100
- Plant response rating, Pigweed [6, 15]: 90
- Plant response rating, Pigweed [6, 16]: 100
- Plant response rating, Pigweed [6, 17]: 100
- Plant response rating, Ryegrass, Italian [7, 11]: 5
- Plant response rating, Ryegrass, Italian [7, 12]: 50
- Plant response rating, Ryegrass, Italian [7, 13]: 70
- Plant response rating, Ryegrass, Italian [7, 14]: 80
- Plant response rating, Ryegrass, Italian [7, 15]: 0
- Plant response rating, Ryegrass, Italian [7, 16]: 0
- Plant response rating, Ryegrass, Italian [7, 17]: 20
- Plant response rating, Foxtail, Giant [8, 11]: 75
- Plant response rating, Foxtail, Giant [8, 18]: 75
- Plant response rating, Foxtail, Giant [8, 12]: 90
- Plant response rating, Foxtail, Giant [8, 13]: 95
- Plant response rating, Foxtail, Giant [8, 14]: 95
- Plant response rating, Foxtail, Giant [8, 15]: 0
- Plant response rating, Foxtail, Giant [8, 16]: 0
- Plant response rating, Foxtail, Giant [8, 17]: 60
- Plant response rating, Soybean (soybean (Glycine max); [11]): 90
- Plant response rating, Soybean (soybean (Glycine max); [12]): 95
- Plant response rating, Soybean (soybean (Glycine max); [13]): 95
- Plant response rating, Soybean (soybean (Glycine max); [14]): 95
- Plant response rating, Soybean (soybean (Glycine max); [16]): 0
- Plant response rating, Soybean (soybean (Glycine max); [17]): 0
- Plant response rating, Blackgrass [9, 11]: 10
- Plant response rating, Blackgrass [9, 18]: 40
- Plant response rating, Blackgrass [9, 12]: 35
- Plant response rating, Blackgrass [9, 13]: 40
- Plant response rating, Blackgrass [9, 14]: 60
- Plant response rating, Blackgrass [9, 15]: 0
- Plant response rating, Blackgrass [9, 16]: 0
- Plant response rating, Blackgrass [9, 17]: 30
- Plant response rating, Surinam Grass [10, 11]: 75
- Plant response rating, Surinam Grass [10, 12]: 80
- Plant response rating, Surinam Grass [10, 13]: 90
- Plant response rating, Surinam Grass [10, 14]: 90
- Plant response rating, Surinam Grass [10, 15]: 5
- Plant response rating, Surinam Grass [10, 16]: 75
- Plant response rating, Surinam Grass [10, 17]: 85

Reference: US8952024B2, “Herbicidal pyrimidone derivatives” (E I du Pont de Nemours and Company, priority 2009, dated 2015)
